Measured values from the NIST ThermoML archive (doi:10.1016/j.tca.2016.03.002).
Numbers after ± are expanded uncertainties.

Experiments:
[1] = refractive index (Na D-line) (dimensionless); xn = mol fraction of the nth substance listed; settings: 100 kPa, Liquid, Standard Abbe refractometry
[2] = relative permittivity at various frequencies (dimensionless); xn = mol fraction of the nth substance listed; settings: 100 kPa, Liquid, Frequency=30 MHz, Parallel plate capacitor

Molecule `NC1CCCCC1` [cyclohexylamine] + CO has a refractive index ([1]; 293.15 K, x2 = 0) of 1.45934 ± 0.0044, a refractive index ([1]; 293.15 K, x2 = 0.0702) of 1.45717 ± 0.0044 and a refractive index ([1]; 293.15 K, x2 = 0.1177) of 1.45561 ± 0.0044. For the same molecule, the refractive index ([1]; 293.15 K, x2 = 0.2006) was 1.45245 ± 0.0044, the refractive index ([1]; 293.15 K, x2 = 0.3049) was 1.44774 ± 0.0044 and the refractive index ([1]; 293.15 K, x2 = 0.4041) was 1.44199 ± 0.0043. It also gave a refractive index ([1]; 293.15 K, x2 = 0.4986) of 1.43478 ± 0.0043, a refractive index ([1]; 293.15 K, x2 = 0.5392) of 1.43072 ± 0.0043 and a refractive index ([1]; 293.15 K, x2 = 0.597) of 1.42424 ± 0.0043. The refractive index ([1]; 293.15 K, x2 = 0.6609) was 1.41597 ± 0.0043, the refractive index ([1]; 293.15 K, x2 = 0.7024) was 1.40945 ± 0.0043 and the refractive index ([1]; 293.15 K, x2 = 0.7999) was 1.39047 ± 0.0042. The refractive index ([1]; 293.15 K, x2 = 0.8572) was 1.37655 ± 0.0042, the refractive index ([1]; 293.15 K, x2 = 0.8985) was 1.36493 ± 0.0041 and the refractive index ([1]; 293.15 K, x2 = 0.9032) was 1.36365 ± 0.0041. It also gave a refractive index ([1]; 293.15 K, x2 = 0.949) of 1.34836 ± 0.0041, a refractive index ([1]; 298.15 K, x2 = 0) of 1.45663 ± 0.0044 and a refractive index ([1]; 298.15 K, x2 = 0.0702) of 1.45462 ± 0.0044. The refractive index ([1]; 298.15 K, x2 = 0.1177) was 1.45309 ± 0.0044, the refractive index ([1]; 298.15 K, x2 = 0.2006) was 1.45014 ± 0.0044 and the refractive index ([1]; 298.15 K, x2 = 0.3049) was 1.44542 ± 0.0043. For the same molecule, the refractive index ([1]; 298.15 K, x2 = 0.4041) was 1.43954 ± 0.0043, the refractive index ([1]; 298.15 K, x2 = 0.4986) was 1.43243 ± 0.0043 and the refractive index ([1]; 298.15 K, x2 = 0.5392) was 1.42852 ± 0.0043. The refractive index ([1]; 298.15 K, x2 = 0.597) was 1.42256 ± 0.0043, the refractive index ([1]; 298.15 K, x2 = 0.6609) was 1.41393 ± 0.0043 and the refractive index ([1]; 298.15 K, x2 = 0.7024) was 1.40787 ± 0.0042. It also gave a refractive index ([1]; 298.15 K, x2 = 0.7999) of 1.38877 ± 0.0042, a refractive index ([1]; 298.15 K, x2 = 0.8535) of 1.3759 ± 0.0042 and a refractive index ([1]; 298.15 K, x2 = 0.8572) of 1.37494 ± 0.0042. For the same molecule, the refractive index ([1]; 298.15 K, x2 = 0.8985) was 1.36313 ± 0.0041, the refractive index ([1]; 298.15 K, x2 = 0.949) was 1.34625 ± 0.0041 and the refractive index ([1]; 303.15 K, x2 = 0) was 1.45325 ± 0.0044. For the same molecule, the refractive index ([1]; 303.15 K, x2 = 0.0702) was 1.45212 ± 0.0044, the refractive index ([1]; 303.15 K, x2 = 0.1177) was 1.45064 ± 0.0044 and the refractive index ([1]; 303.15 K, x2 = 0.2006) was 1.44761 ± 0.0044. The refractive index ([1]; 303.15 K, x2 = 0.3049) was 1.4431 ± 0.0043, the refractive index ([1]; 303.15 K, x2 = 0.4041) was 1.43715 ± 0.0043 and the refractive index ([1]; 303.15 K, x2 = 0.4986) was 1.42999 ± 0.0043. It also gave a refractive index ([1]; 303.15 K, x2 = 0.5392) of 1.42613 ± 0.0043, a refractive index ([1]; 303.15 K, x2 = 0.597) of 1.42012 ± 0.0043 and a refractive index ([1]; 303.15 K, x2 = 0.6609) of 1.41198 ± 0.0043. For the same molecule, the refractive index ([1]; 303.15 K, x2 = 0.7024) was 1.40569 ± 0.0042, the refractive index ([1]; 303.15 K, x2 = 0.746) was 1.39807 ± 0.0042 and the refractive index ([1]; 303.15 K, x2 = 0.7999) was 1.38677 ± 0.0042. The refractive index ([1]; 303.15 K, x2 = 0.8572) was 1.37247 ± 0.0042, the refractive index ([1]; 303.15 K, x2 = 0.9032) was 1.35944 ± 0.0041 and the refractive index ([1]; 303.15 K, x2 = 0.949) was 1.3444 ± 0.0041. The relative permittivity ([2]; 293.15 K, x2 = 0) was 4.65 ± 0.09, the relative permittivity ([2]; 293.15 K, x2 = 0.0702) was 5.34 ± 0.11 and the relative permittivity ([2]; 293.15 K, x2 = 0.1177) was 5.88 ± 0.12. The relative permittivity ([2]; 293.15 K, x2 = 0.2006) was 7.01 ± 0.14, the relative permittivity ([2]; 293.15 K, x2 = 0.3049) was 8.78 ± 0.18 and the relative permittivity ([2]; 293.15 K, x2 = 0.4041) was 10.87 ± 0.22. It also gave a relative permittivity ([2]; 293.15 K, x2 = 0.4986) of 13.26 ± 0.27, a relative permittivity ([2]; 293.15 K, x2 = 0.5392) of 14.55 ± 0.3 and a relative permittivity ([2]; 293.15 K, x2 = 0.597) of 16.28 ± 0.33. The relative permittivity ([2]; 293.15 K, x2 = 0.6609) was 18.6 ± 0.38, the relative permittivity ([2]; 293.15 K, x2 = 0.6986) was 19.95 ± 0.4 and the relative permittivity ([2]; 293.15 K, x2 = 0.746) was 21.72 ± 0.44. The relative permittivity ([2]; 293.15 K, x2 = 0.7997) was 23.89 ± 0.48, the relative permittivity ([2]; 293.15 K, x2 = 0.8572) was 26.33 ± 0.53 and the relative permittivity ([2]; 293.15 K, x2 = 0.8985) was 28.32 ± 0.57. The relative permittivity ([2]; 293.15 K, x2 = 0.949) was 30.74 ± 0.62, the relative permittivity ([2]; 298.15 K, x2 = 0) was 4.56 ± 0.09 and the relative permittivity ([2]; 298.15 K, x2 = 0.0702) was 5.23 ± 0.11. The relative permittivity ([2]; 298.15 K, x2 = 0.1177) was 5.75 ± 0.12, the relative permittivity ([2]; 298.15 K, x2 = 0.2006) was 6.84 ± 0.14 and the relative permittivity ([2]; 298.15 K, x2 = 0.3049) was 8.55 ± 0.17. For the same molecule, the relative permittivity ([2]; 298.15 K, x2 = 0.4041) was 10.58 ± 0.21, the relative permittivity ([2]; 298.15 K, x2 = 0.4986) was 12.88 ± 0.26 and the relative permittivity ([2]; 298.15 K, x2 = 0.5392) was 14.1 ± 0.29. The relative permittivity ([2]; 298.15 K, x2 = 0.597) was 15.73 ± 0.32, the relative permittivity ([2]; 298.15 K, x2 = 0.6609) was 18.05 ± 0.37 and the relative permittivity ([2]; 298.15 K, x2 = 0.6986) was 19.34 ± 0.39. For the same molecule, the relative permittivity ([2]; 298.15 K, x2 = 0.746) was 21.14 ± 0.43, the relative permittivity ([2]; 298.15 K, x2 = 0.7997) was 23.16 ± 0.47 and the relative permittivity ([2]; 298.15 K, x2 = 0.8572) was 25.55 ± 0.52. It also gave a relative permittivity ([2]; 298.15 K, x2 = 0.8985) of 27.5 ± 0.56, a relative permittivity ([2]; 298.15 K, x2 = 0.949) of 29.87 ± 0.6 and a relative permittivity ([2]; 303.15 K, x2 = 0) of 4.47 ± 0.09. The relative permittivity ([2]; 303.15 K, x2 = 0.0702) was 5.13 ± 0.1, the relative permittivity ([2]; 303.15 K, x2 = 0.1177) was 5.63 ± 0.11 and the relative permittivity ([2]; 303.15 K, x2 = 0.2006) was 6.68 ± 0.14. For the same molecule, the relative permittivity ([2]; 303.15 K, x2 = 0.3049) was 8.32 ± 0.17, the relative permittivity ([2]; 303.15 K, x2 = 0.4041) was 10.29 ± 0.21 and the relative permittivity ([2]; 303.15 K, x2 = 0.4986) was 12.47 ± 0.25. The relative permittivity ([2]; 303.15 K, x2 = 0.5392) was 13.66 ± 0.28, the relative permittivity ([2]; 303.15 K, x2 = 0.597) was 15.28 ± 0.31 and the relative permittivity ([2]; 303.15 K, x2 = 0.6609) was 17.5 ± 0.35. The relative permittivity ([2]; 303.15 K, x2 = 0.6986) was 18.73 ± 0.38, the relative permittivity ([2]; 303.15 K, x2 = 0.746) was 20.47 ± 0.41 and the relative permittivity ([2]; 303.15 K, x2 = 0.7997) was 22.46 ± 0.45. For the same molecule, the relative permittivity ([2]; 303.15 K, x2 = 0.8535) was 24.61 ± 0.5, the relative permittivity ([2]; 303.15 K, x2 = 0.8985) was 26.7 ± 0.54 and the relative permittivity ([2]; 303.15 K, x2 = 0.949) was 28.96 ± 0.58.
